Test [1] concerns RPMI-8226. Briefly: Cytotoxicity against human RPMI8226 cells after 72 hrs by calcein AM staining-based fluorescence assay. The test is classed as functional, cell-based. As to conditions: RPMI-8226, 72 h.
Test [2] has as its system MCF7. Briefly: Cytotoxicity against human MCF7 cells after 72 hrs by calcein AM staining-based fluorescence assay. The class given is functional, cell-based. As to conditions: MCF7, 72 h.
Test [3] deals with K562. Briefly: Cytotoxicity against human K562 cells after 72 hrs by calcein AM staining-based fluorescence assay. The class given is functional, cell-based. As to conditions: K562, 72 h.
Test [4] addresses Cyclin-dependent kinase 2/cyclin E1 (Homo sapiens, UniProt P24941). Briefly: Inhibition of CDK2/cyclin E (unknown origin) expressed in baculovirus infected Sf9 cells.
The subject of test [5] is RPMI-8226. Briefly: Induction of apoptosis in human RPMI8226 cells assessed as PARP-1 cleavage at 25 to 100 uM after 24 hrs by immunoblot analysis. The class given is functional, cell-based. On the technique in general: A western blot detects proteins with antibodies after separation by electrophoresis.
Test [6] has as its system RPMI-8226. Briefly: Induction of apoptosis in human RPMI8226 cells assessed as caspase 7 activation at 25 to 100 uM after 24 hrs by immunoblot analysis. The class given is functional, cell-based.
Test [7] addresses Cyclin-dependent kinase 4/cyclin D1 (Homo sapiens, UniProt P11802). Briefly: Inhibition of CDK4/cyclin D1 (unknown origin) expressed in baculovirus infected Sf9 cells.
Test [8] relates to MCF7. Briefly: Cell cycle arrest in 24 hrs thymidine-synchronized human MCF7 cells assessed as delay in cell cycle progression at 12.5 to 25 uM after 16 hrs by propidium iodide staining-based flow cytometry. The test is classed as functional. On the technique in general: In flow cytometry, cells or beads pass a laser one at a time.
Test [9] relates to K562. Briefly: Cell cycle arrest in human K562 cells assessed as accumulation at S phase at 100 uM after 24 hrs by propidium iodide staining-based flow cytometry (reference value: 47.9%). The test is classed as functional.
The target of a further test is CDK9/cyclin T1 (Homo sapiens, UniProt P50750). Briefly: Inhibition of CDK9/cyclin T1 (unknown origin) expressed in baculovirus infected Sf9 cells.
CDK9/cyclin T1, sequence (O60563 whole entry): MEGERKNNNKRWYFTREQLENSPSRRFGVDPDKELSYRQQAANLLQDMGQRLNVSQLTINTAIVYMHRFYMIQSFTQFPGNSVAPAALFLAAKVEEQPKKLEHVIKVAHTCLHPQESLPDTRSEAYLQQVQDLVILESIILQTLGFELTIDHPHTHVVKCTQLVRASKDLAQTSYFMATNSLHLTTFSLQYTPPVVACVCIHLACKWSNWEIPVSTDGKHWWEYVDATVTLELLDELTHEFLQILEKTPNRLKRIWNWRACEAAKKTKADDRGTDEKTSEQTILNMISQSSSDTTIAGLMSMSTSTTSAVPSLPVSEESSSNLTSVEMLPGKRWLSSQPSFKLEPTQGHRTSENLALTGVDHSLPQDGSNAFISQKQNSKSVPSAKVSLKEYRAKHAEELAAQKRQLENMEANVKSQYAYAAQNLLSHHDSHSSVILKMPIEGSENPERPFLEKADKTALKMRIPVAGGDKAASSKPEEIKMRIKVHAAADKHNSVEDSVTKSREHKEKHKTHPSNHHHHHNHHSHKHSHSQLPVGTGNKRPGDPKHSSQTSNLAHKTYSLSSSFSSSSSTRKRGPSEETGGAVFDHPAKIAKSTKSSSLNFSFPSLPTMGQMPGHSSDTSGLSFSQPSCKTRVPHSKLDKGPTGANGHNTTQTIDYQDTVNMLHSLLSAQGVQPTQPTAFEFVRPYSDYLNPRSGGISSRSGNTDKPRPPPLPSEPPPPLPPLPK
CDK9/cyclin T1, sequence (P50750 whole entry): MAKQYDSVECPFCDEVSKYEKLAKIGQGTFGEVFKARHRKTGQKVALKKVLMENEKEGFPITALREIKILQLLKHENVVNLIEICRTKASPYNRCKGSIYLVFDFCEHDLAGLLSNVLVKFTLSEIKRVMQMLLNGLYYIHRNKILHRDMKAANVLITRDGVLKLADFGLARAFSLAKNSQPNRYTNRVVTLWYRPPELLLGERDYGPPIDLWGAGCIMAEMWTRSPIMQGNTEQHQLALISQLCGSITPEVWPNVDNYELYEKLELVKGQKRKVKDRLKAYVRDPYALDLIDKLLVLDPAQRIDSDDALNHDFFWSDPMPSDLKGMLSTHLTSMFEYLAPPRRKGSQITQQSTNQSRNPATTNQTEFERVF
Test [10] relates to RPMI-8226. Briefly: Induction of apoptosis in human RPMI8226 cells assessed as caspase 3 activation at 25 to 100 uM after 24 hrs by immunoblot analysis. The class given is functional, cell-based.
The test system of test [11] is RPMI-8226. Briefly: Induction of apoptosis in human RPMI8226 cells assessed as increase in caspase 9 activity at 25 to 100 uM after 24 hrs by fluorescence assay. The test is classed as functional, cell-based.
Test [12] deals with Cyclin-dependent kinase 1/cyclin B1 (Homo sapiens, UniProt P06493). Briefly: Inhibition of CDK1/cyclin B (unknown origin) expressed in baculovirus infected Sf9 cells.
Cyclin-dependent kinase 1/cyclin B1, sequence (P06493 whole entry): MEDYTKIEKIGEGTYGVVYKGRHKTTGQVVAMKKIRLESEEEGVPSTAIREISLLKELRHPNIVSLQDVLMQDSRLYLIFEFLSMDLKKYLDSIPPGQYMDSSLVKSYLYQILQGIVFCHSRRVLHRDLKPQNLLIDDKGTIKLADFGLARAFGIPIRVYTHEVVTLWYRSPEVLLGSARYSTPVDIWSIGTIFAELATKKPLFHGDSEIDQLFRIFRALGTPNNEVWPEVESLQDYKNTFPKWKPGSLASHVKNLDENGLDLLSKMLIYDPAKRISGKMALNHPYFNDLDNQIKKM
Cyclin-dependent kinase 1/cyclin B1, sequence (P14635 whole entry, further chain): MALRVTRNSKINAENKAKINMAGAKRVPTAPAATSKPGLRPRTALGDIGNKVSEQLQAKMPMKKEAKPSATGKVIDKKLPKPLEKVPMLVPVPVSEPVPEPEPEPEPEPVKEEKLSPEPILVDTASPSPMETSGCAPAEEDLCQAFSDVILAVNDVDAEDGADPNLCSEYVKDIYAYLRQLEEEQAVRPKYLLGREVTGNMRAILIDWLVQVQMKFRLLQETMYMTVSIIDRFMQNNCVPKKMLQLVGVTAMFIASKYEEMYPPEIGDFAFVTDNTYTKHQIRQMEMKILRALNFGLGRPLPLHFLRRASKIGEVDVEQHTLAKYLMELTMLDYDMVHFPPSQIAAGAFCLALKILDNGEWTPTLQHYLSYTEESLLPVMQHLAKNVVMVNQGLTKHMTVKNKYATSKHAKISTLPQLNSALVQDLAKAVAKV
Test [13] in a line: Cell cycle arrest in human RPMI8226 cells assessed as accumulation at G1 phase at 100 uM after 24 hrs by propidium iodide staining-based flow cytometry (reference value: 22.2%). The test is classed as functional. As to conditions: RPMI-8226.
Test [14] relates to MCF7. Briefly: Cell cycle arrest in 24 hrs serum-deprived human asynchronous MCF7 cells assessed as inhibition of re-entry to G1 phase at 6.25 to 25 uM after 16 hrs by propidium iodide staining-based flow cytometry. The class given is functional.
Test [15] has as its system MCF7. Briefly: Cell cycle arrest in human MCF7 cells assessed as accumulation at subG1 phase at 40 uM after 24 hrs by propidium iodide staining-based flow cytometry (reference value: 0.6%). The test is classed as functional.
For test [16], the system named is K562. Briefly: Cell cycle arrest in human K562 cells assessed as accumulation at subG1 phase at 100 uM after 24 hrs by propidium iodide staining-based flow cytometry (reference value: 2.3%). The class given is functional.
Test [17] deals with RPMI-8226. Briefly: Induction of apoptosis in human RPMI8226 cells assessed as increase in caspase 3 activity at 25 to 100 uM after 24 hrs by fluorescence assay. The test is classed as functional, cell-based.
For test [18], the system named is MCF7. Briefly: Cell cycle arrest in 8 hrs thymidine-synchronized human MCF7 cells assessed as delay in cell cycle progression at 12.5 to 25 uM after 16 hrs by propidium iodide staining-based flow cytometry. The class given is functional.
Test [19] deals with MCF7. Briefly: Cell cycle arrest in human MCF7 cells assessed as accumulation at G1 phase at 40 uM after 24 hrs by propidium iodide staining-based flow cytometry (reference value: 61.9%). The class given is functional.
For test [20], the system named is MCF7. Briefly: Cell cycle arrest in human MCF7 cells assessed as accumulation at G2/M phase at 40 uM after 24 hrs by propidium iodide staining-based flow cytometry (reference value: 9.8%). The test is classed as functional.
Test [21] in a line: Cell cycle arrest in human RPMI8226 cells assessed as accumulation at G2/M phase at 100 uM after 24 hrs by propidium iodide staining-based flow cytometry (reference value: 24.8%). The test is classed as functional. As to conditions: RPMI-8226.
For test [22], the system named is K562. Briefly: Cell cycle arrest in human K562 cells assessed as accumulation at G2/M phase at 100 uM after 24 hrs by propidium iodide staining-based flow cytometry (reference value: 25.8%). The class given is functional.
Test [23] can be described thus: Cell cycle arrest in human RPMI8226 cells assessed as accumulation at subG1 phase at 100 uM after 24 hrs by propidium iodide staining-based flow cytometry (reference value: 9.8%). As to conditions: RPMI-8226. The class given is functional.
Test [24] is described as follows: Cell cycle arrest in human RPMI8226 cells assessed as accumulation at S phase at 100 uM after 24 hrs by propidium iodide staining-based flow cytometry (reference value: 53%). The test is classed as functional. As to conditions: RPMI-8226.
Test [25] concerns K562. Briefly: Cell cycle arrest in human K562 cells assessed as accumulation at G1 phase at 100 uM after 24 hrs by propidium iodide staining-based flow cytometry (reference value: 26.3%). The test is classed as functional.
The target of test [26] is Cyclin-dependent kinase 7/ cyclin H (Homo sapiens, UniProt P50613). Briefly: Inhibition of CDK7/cyclin H (unknown origin) expressed in baculovirus infected Sf9 cells.
Cyclin-dependent kinase 7/ cyclin H, sequence (P51946 whole entry): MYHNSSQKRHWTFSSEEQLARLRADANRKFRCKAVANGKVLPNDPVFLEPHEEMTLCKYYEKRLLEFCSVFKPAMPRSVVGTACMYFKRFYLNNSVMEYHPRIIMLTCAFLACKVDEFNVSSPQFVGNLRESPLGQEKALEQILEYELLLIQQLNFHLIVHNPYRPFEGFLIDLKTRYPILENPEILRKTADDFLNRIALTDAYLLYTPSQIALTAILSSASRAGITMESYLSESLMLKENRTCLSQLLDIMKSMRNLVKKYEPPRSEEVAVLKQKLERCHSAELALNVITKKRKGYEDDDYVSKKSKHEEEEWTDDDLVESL
Cyclin-dependent kinase 7/ cyclin H, sequence (P50613 whole entry): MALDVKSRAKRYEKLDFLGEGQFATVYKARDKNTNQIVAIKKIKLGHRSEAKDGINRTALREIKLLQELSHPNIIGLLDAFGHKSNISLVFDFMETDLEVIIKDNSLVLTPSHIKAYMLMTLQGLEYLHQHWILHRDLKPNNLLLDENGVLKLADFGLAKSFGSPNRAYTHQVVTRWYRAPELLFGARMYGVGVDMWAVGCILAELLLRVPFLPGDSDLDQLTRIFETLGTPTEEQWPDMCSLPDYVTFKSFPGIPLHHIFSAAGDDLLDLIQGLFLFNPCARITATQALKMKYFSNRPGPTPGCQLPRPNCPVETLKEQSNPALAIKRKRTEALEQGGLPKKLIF
Test [27] relates to MCF7. Briefly: Cell cycle arrest in human MCF7 cells assessed as accumulation at S phase at 40 uM after 24 hrs by propidium iodide staining-based flow cytometry (reference value: 28.3%). The test is classed as functional.
Test [28] deals with MCF7. Briefly: Cell cycle arrest in 24 hrs thymidine-synchronized human MCF7 cells assessed as inhibition of re-entry to cell cycle at 5 to 10 uM after 16 hrs by propidium iodide staining-based flow cytometry. The test is classed as functional.
Test [29] relates to MCF7. Briefly: Cell cycle arrest in 8 hrs thymidine-synchronized human MCF7 cells assessed as inhibition of re-entry to cell cycle at 5 to 10 uM after 16 hrs by propidium iodide staining-based flow cytometry. The class given is functional.

As a reminder, the IC50 is the concentration that inhibits the measured activity by half.

Structures are written as SMILES. Calls of active or inactive are those of the source. No cut-off for these calls is given here.

Cyclin-dependent kinase 4/cyclin D1, sequence (P11802 whole entry): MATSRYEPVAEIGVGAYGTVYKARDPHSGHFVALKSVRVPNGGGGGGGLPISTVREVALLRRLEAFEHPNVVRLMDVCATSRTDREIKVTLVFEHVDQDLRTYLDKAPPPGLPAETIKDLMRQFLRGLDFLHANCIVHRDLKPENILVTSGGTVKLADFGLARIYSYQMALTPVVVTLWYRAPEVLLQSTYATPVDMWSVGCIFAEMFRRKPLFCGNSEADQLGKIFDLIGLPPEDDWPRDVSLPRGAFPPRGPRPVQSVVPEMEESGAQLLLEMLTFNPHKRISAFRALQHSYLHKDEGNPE
Cyclin-dependent kinase 4/cyclin D1, sequence (P24385 whole entry, further chain): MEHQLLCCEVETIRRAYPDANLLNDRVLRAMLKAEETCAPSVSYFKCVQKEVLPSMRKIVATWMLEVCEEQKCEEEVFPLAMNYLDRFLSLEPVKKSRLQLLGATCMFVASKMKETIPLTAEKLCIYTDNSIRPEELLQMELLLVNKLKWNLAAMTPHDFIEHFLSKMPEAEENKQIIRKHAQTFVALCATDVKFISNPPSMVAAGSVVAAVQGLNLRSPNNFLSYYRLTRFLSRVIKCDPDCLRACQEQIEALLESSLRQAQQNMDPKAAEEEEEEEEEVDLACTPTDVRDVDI

In the case of `Nc1n[nH]c(N)c1/N=N/c1cc[n+]([O-])cc1`, the IC50 with RPMI-8226 [1] was > 100 µM; in the test with MCF7 [2], > 100 µM; in the test with K562 [3], > 100 µM; in [4] it was 17.4 µM.

For `Nc1n[nH]c(N)c1/N=N/c1cccc[n+]1[O-]`, the IC50 in the test with RPMI-8226 [1] is > 100 µM; in the test with MCF7 [2], > 100 µM; in the test with K562 [3] it was 62.6 µM; in test [4], > 100 µM.

With `Nc1n[nH]c(N)c1/N=N/c1ccc(O)cc1`, the half-inhibitory concentration (IC50) with RPMI-8226 [1] is 24.9 µM; in the test with MCF7 [2], 62 µM; in the test on K562 [3], 33 µM.

For the compound `Nc1nn(C(=O)c2ccc([N+](=O)[O-])cc2)c(N)c1/N=N/c1ccc(O)cc1`, the IC50 was > 100 µM with RPMI-8226 [1], > 25 µM in the test with MCF7 [2], > 25 µM with K562 [3] and 15 µM in test [4].

As for `Nc1nn(C(=O)c2cccs2)c(N)c1/N=N/c1ccc(O)cc1`, the IC50 in the test with RPMI-8226 [1] is > 100 µM; with MCF7 [2] it was > 25 µM; in the test on K562 [3], > 25 µM; in test [4], > 25 µM.

In the case of `Nc1n[nH]c(N)c1/N=N/c1ccncc1`, the concentration for half-maximal inhibition (IC50) in the test on RPMI-8226 [1] is 6.2 µM; in the test on MCF7 [2] it was 4.3 µM; in the test on K562 [3], 17 µM.

On to `CC(=O)n1nc(N)c(/N=N/c2ccc(O)cc2)c1N`, for which the concentration for half-maximal inhibition (IC50) was > 100 µM in the test with RPMI-8226 [1], 44.9 µM in the test on MCF7 [2], 64.9 µM in the test on K562 [3] and 42.8 µM in test [4].

On to `CCOC(=O)n1nc(N)c(/N=N/c2ccc(O)cc2)c1N`, for which the IC50 was > 100 µM in the test on RPMI-8226 [1], > 100 µM in the test with MCF7 [2], > 100 µM in the test with K562 [3] and > 50 µM in test [4].

For `Cn1nc(N)c(/N=N/c2ccncc2)c1N`, the result in the test with RPMI-8226 [5], with RPMI-8226 [6], in the test on MCF7 [8], in the test with RPMI-8226 [10], with RPMI-8226 [11] and in the test with MCF7 [14] was Active. The result in the test on RPMI-8226 [17] and with MCF7 [18] was Active. In addition, the IC50 in the test on RPMI-8226 [1] is 50 µM; in test [7] it was 0.42 µM; against CDK9/cyclin T1, 1.35 µM; in test [12] it was 11.3 µM; with MCF7 [2], 37.7 µM; with K562 [3], 67.4 µM. Further, the half-inhibitory concentration (IC50) in test [4] is 16.8 µM; in [26] it was > 50 µM. In addition, the Activity in the test with K562 [9] was determined as 31.4%; in test [13], 31.3%; with MCF7 [15] it was 1%; in the test on K562 [16] it was 6.5%; with MCF7 [19], 50.6%; in the test on MCF7 [20], 33.5%. The Activity came to 28.9% in [21]; 35.4% in the test with K562 [22]; 57.7% in [23]; 39.8% in [24]; 33.2% with K562 [25]; 15.8% in the test on MCF7 [27].

For `Cn1nc(N)c(/N=N/c2ccc(O)cc2)c1N`, the IC50 in the test with RPMI-8226 [1] was > 100 µM; with MCF7 [2] it was > 100 µM; in the test on K562 [3], 98.5 µM; in test [4], > 50 µM.

For `CCn1cnc2c(Nc3cccc(Cl)c3)nc(N[C@@H]3CCCC[C@@H]3N)nc21`, the inhibition entry with MCF7 [28] and with MCF7 [29] was “Active” each time.
